Results on twelve compounds are retold here after patent publication US8536202B2, “Triazole-substituted anthranilamides as pesticides” (Bayer Cropscience AG, priority 2010, dated 2013).

Data set [1] has as its system larvae of the mustard beetle (Phaedon cochleariae). Briefly: Phaedon test (PHAECO spray treatment). The format is in vivo. The settings on record: 168 h, read-out: activity in %. Summed up: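 Compound dissolved in acetone/dimethylformamide with alkylaryl polyglycol ether emulsifier, then diluted with emulsifier-containing water to test concentration for spray treatment of Phaedon cochleariae larvae. Activity scored after 7 days as % larvae killed (100% = all dead, 0% = none).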

In data set [2] the test system is two-spotted spider mite (Tetranychus urticae). Briefly: Tetranychus test, OP-resistant (TETRUR spray treatment). Format: in vivo. The settings on record: 100 g/ha, after 6 days. Here is the method:
(§1) Solvents: 78.0 parts by weight of acetone • • 1.5 parts by weight of dimethylformamide
(§2) Emulsifier: 0.5 part by weight of alkylaryl polyglycol ether
An appropriate preparation of active compound is prepared by mixing 1 part by weight of active compound with the stated amounts of solvent and emulsifier and diluting the concentrate with emulsifier-containing water to the desired concentration. Leaf discs of French bean (Phaseolus vulgaris) infested by all stages of the two-spotted spider mite (Tetranychus urticae) are sprayed with a preparation of active compound at the desired concentration.
After 6 days, the activity in % is ascertained. Here, 100% means that all of the spider mites have been killed; 0% means that no spider mites have been killed.

Data set [3] concerns green peach aphid (Myzus persicae). Briefly: Myzus test (MYZUPE spray treatment), Use Example 4. The settings on record: 144 h, read-out: activity in %. The format is in vivo. Summed up: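 Compound was formulated in acetone/dimethylformamide with alkylaryl polyglycol ether emulsifier and diluted in emulsifier-containing water. It was sprayed onto Chinese cabbage leaf discs infested with all stages of Myzus persicae. Mortality (%) was scored after 6 days, where 100% means all aphids killed.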

Data set [4] relates to caterpillars of the armyworm (Spodoptera frugiperda). Description: Spodoptera frugiperda test (SPODFR spray treatment). Format: in vivo. Conditions: 168 h, read-out: activity in %. In a few lines:
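Maize leaf discs sprayed with compound diluted in emulsifier-containing water (acetone/DMF solvent, alkylaryl polyglycol ether emulsifier), dried, then infested with armyworm caterpillars. Kill scored after 7 days as % mortality, 100% = all caterpillars dead, 0% = none.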

Data set [5] is described as follows: log P determination by HPLC on reversed-phase columns (EEC Directive 79/831 Annex V.A8). Format: physicochemical. The settings on record: pH 2.7. Summed up: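 log P from reversed-phase LC-MS retention at pH 2.7, 0.1% formic acid water/acetonitrile gradient 10–95% acetonitrile. Calibrated against C3–C16 unbranched alkan-2-ones, interpolating linearly between adjacent alkanones.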

In a further data set the test system is Boophilus microplus. Description: Boophilus microplus test (BOOPMI injection). Format: in vivo. Conditions: Rhipicephalus microplus, 168 h, 20 μg/animal, after 7 days, read-out: activity in % (no fertile eggs laid). As to the method: (§3) Solvent: dimethyl sulphoxide
An appropriate preparation of active compound is prepared by mixing 10 mg of active compound with 0.5 ml of solvent and diluting the concentrate with solvent to the desired concentration. The solution of active compound is injected into the abdomen (Boophilus microplus), and the animals are transferred to dishes and kept in a climatized room. Activity is assessed by deposition of fertile eggs.
After 7 days, the activity in % is assessed. Here, 100% means that none of the ticks has laid fertile eggs.

A further data set has as its system Lucilia cuprina larvae. Briefly: Lucilia cuprina test (LUCICU). Format: in vivo. The settings on record: 48 h, read-out: kill in %. As to the method: as §3
An appropriate preparation of active compound is prepared by mixing 10 mg of active compound with 0.5 ml of dimethyl sulphoxide and diluting the concentrate with water to the desired concentration.
Vessels containing horse meat treated with the preparation of active compound at the desired concentration are populated with approximately 20 Lucilia cuprina larvae.
After 2 days, the kill in % is ascertained. Here, 100% means that all of the larvae have been killed; 0% means that no larvae have been killed.

A further data set relates to adult Musca domestica. Description: Musca domestica test (MUSCDO). The format is in vivo. The settings on record: 48 h, read-out: kill in %. As to the method:
as §3
An appropriate preparation of active compound is prepared by mixing 10 mg of active compound with 0.5 ml of dimethyl sulphoxide and diluting the concentrate with water to the desired concentration. Vessels containing a sponge treated with the preparation of active compound at the desired concentration are populated with adult Musca domestica.
After 2 days, the kill in % is ascertained. Here, 100% means that all of the flies have been killed; 0% means that no flies have been killed.

Data set [6] deals with green peach aphid (Myzus persicae). Briefly: Myzus test (MYZUPE spray treatment), Use Example 8, comparison with prior art. The format is in vivo. Conditions: 100 g/ha, 6 d. Here is the method: as §1, §2
An appropriate preparation of active compound is prepared by mixing 1 part by weight of active compound with the stated amounts of solvents and emulsifier and diluting the concentrate with emulsifier-containing water to the desired concentration.
Leaf discs of Chinese cabbage (Brassica pekinensis) infested by all stages of the green peach aphid (Myzus persicae) are sprayed with a preparation of active compound at the desired concentration. After the desired time, the activity in % is ascertained. Here, 100% means that all of the aphids have been killed; 0% means that no aphids have been killed.

Setting [7] is: HPLC on reversed-phase columns (C 18), EEC Directive 79/831 Annex V.A8, read-out: logP.

The structures appear in SMILES notation. Read-outs that look alike come from different tables or passages of the source.

With `Cc1cc(C#N)cc(C(=O)NC(C)(C)C)c1NC(=O)c1cc(Cn2cc(C3CC3)nn2)nn1-c1ncccc1Cl` [Example 50], the pest or weed control at 100 g/ha was found to be 100% in data set [1] (100 g/ha, after 7 days); 90% in [3] (100 g/ha, after 6 days); 83% in data set [4] (100 g/ha, after 7 days). In data set [2], this compound gave an activity in % of 80%. In [5], this compound yielded a chromatographic logP of 2.57.

Take `CSC[C@H](C)NC(=O)c1cc(I)cc(C)c1NC(=O)c1cc(Cn2cc(C(F)(F)C(F)(F)C(F)(F)F)nn2)nn1-c1ncccc1Cl` [Example 321]: the pest or weed control at 100 g/ha in data set [1], in [3] and in data set [4] was 100% throughout. In [2], this compound displayed an activity in % of 90%. The chromatographic logP in data set [5] (setting [7]) was found to be 4.27.

For `CNC(=O)c1cc(Cl)cc(Cl)c1NC(=O)c1cc(Cn2cc(C(F)(C(F)(F)F)C(F)(F)F)nn2)nn1-c1ncccc1Cl` [Example 241], the pest or weed control at 0.02 mg in the data set with Boophilus microplus stood at 100%. Further, the pest or weed control at 100 g/ha came to 100% in data set [1] (100 g/ha, after 7 days); 100% in data set [3] (100 g/ha, after 6 days); 100% in [4] (100 g/ha, after 7 days). The pest or weed control at 100 ppm in the data set on Lucilia cuprina larvae came out at 100%; in the data set with adult Musca domestica it was 80%. In addition, the chromatographic logP in data set [5] worked out at 3.31.

As for `Cc1cc(Cl)cc(C(N)=O)c1NC(=O)c1cc(Cn2cc(C(F)(C(F)(F)F)C(F)(F)F)nn2)nn1-c1ncccc1Cl` [Example 231], the pest or weed control at 0.02 mg in the data set with Boophilus microplus is 100%. Also, the pest or weed control at 100 g/ha amounted to 100% in [1] (100 g/ha, after 7 days); 100% in data set [3] (100 g/ha, after 6 days); 100% in data set [4] (100 g/ha, after 7 days). For the same compound, the pest or weed control at 100 ppm with Lucilia cuprina larvae is 100%; in the data set with adult Musca domestica it was 80%. The compound also registered a chromatographic logP in [5] of 3.16.

For the compound `Cc1cc(Cl)cc(C(N)=O)c1NC(=O)c1cc(Cn2cc(C(F)(F)C(F)(F)F)nn2)nn1-c1ncccc1Cl` [drawing 449], the “% Activity” value in [6] is 100 6 d %.

As for `Cc1cc(C#N)cc(C(=O)NC(C)C)c1NC(=O)c1cc(Cn2ncc(C(F)(F)F)n2)nn1-c1ncccc1Cl` [Example 128], the pest or weed control at 0.02 mg in the data set with Boophilus microplus was determined as 100%. Also, the pest or weed control at 100 g/ha in [1] (100 g/ha, after 7 days) was determined as 100%; in data set [3] (100 g/ha, after 6 days), 100%; in [4] (100 g/ha, after 7 days) it was 100%. Further, the pest or weed control at 100 ppm in the data set with Lucilia cuprina larvae is 100%; in the data set on adult Musca domestica, 80%. Besides, the chromatographic logP in data set [5] is 3.1.

On to `Cc1cc(I)cc(C(N)=O)c1NC(=O)c1cc(Cn2cc(C(F)(C(F)(F)F)C(F)(F)F)nn2)nn1-c1ncccc1Cl` [Example 239], for which the pest or weed control at 0.02 mg with Boophilus microplus is 100%. Also, the pest or weed control at 100 g/ha was 100% in data set [1] (100 g/ha, after 7 days); 100% in [3] (100 g/ha, after 6 days); 100% in data set [4] (100 g/ha, after 7 days). Also, the pest or weed control at 100 ppm with Lucilia cuprina larvae and in the data set on adult Musca domestica was 100% in each case. The compound further displayed a chromatographic logP in [5] of 3.35.

Turning to `CNC(=O)c1cc(C#N)cc(C)c1NC(=O)c1cc(Cn2ncc(C(C)(C)C)n2)nn1-c1ncccc1Cl` [Example 39], the pest or weed control at 100 g/ha in [1] (100 g/ha, after 7 days) worked out at 83%. Further, the activity in % in data set [2] worked out at 90%. The same compound registered a chromatographic logP in data set [5] of 2.89.

Consider `Cc1cc(I)cc(C(=O)NC2CC2)c1NC(=O)c1cc(Cn2ncc(C(F)(F)C(F)(F)C(F)(F)F)n2)nn1-c1ncccc1Cl` [Example 375], for which the pest or weed control at 100 g/ha in [1] and in data set [4] was 100% each time. This compound also had an activity in % in data set [2] of 90%. In addition, the chromatographic logP in data set [5] (setting [7]) stood at 4.23.

`Cc1cc(C#N)cc(C(=O)NC2(C3CC3)CC2)c1NC(=O)c1cc(Cn2ncc(C(F)(F)F)n2)nn1-c1ncccc1Cl` [Example 281]: the pest or weed control at 0.02 mg in the data set with Boophilus microplus came out at 100%. In addition, the pest or weed control at 100 g/ha came to 100% in data set [1] (100 g/ha, after 7 days); 100% in [3] (100 g/ha, after 6 days); 100% in data set [4] (100 g/ha, after 7 days). Besides, the pest or weed control at 100 ppm with Lucilia cuprina larvae and in the data set with adult Musca domestica was 100% throughout. In data set [5], this compound yielded a chromatographic logP of 3.37.

On to `Cc1cc(Cl)cc(C(=O)NC2(C3CC3)CC2)c1NC(=O)c1cc(Cn2ncc(C(F)(F)F)n2)nn1-c1ncccc1Cl` [Example 282], for which the pest or weed control at 0.02 mg in the data set with Boophilus microplus stood at 100%. Further, the pest or weed control at 100 g/ha in data set [1] (100 g/ha, after 7 days) was found to be 100%; in data set [3] (100 g/ha, after 6 days) it was 80%; in data set [4] (100 g/ha, after 7 days), 100%. Also, the pest or weed control at 100 ppm came out at 100% with Lucilia cuprina larvae and 80% with adult Musca domestica. The compound further yielded a chromatographic logP in data set [5] of 3.78.

Take `Cc1cc(Cl)cc(C(N)=O)c1NC(=O)c1cc(Cn2nnc(C(F)(F)C(F)(F)F)n2)nn1-c1ncccc1Cl` [reference compound]: the “% Activity” value in [6] is 80 6 d %.
